pEC50, pIC50: −log10 of the molar value. Where two headings read alike, the source gives them in different places. Some results are limits rather than exact numbers.

Assay [1] relates to live leukemic cells of AML patient samples (bone marrow or peripheral blood). The experiment in a line: Ex-vivo effect on AML patient samples, depletion of live leukemic cells by flow cytometry. It is filed as cell-based, human. The following applies: plates incubated for 48 hours. The procedure: Patient samples were obtained from a non-interventional and prospective study. The study included samples from adult patients over 18 years of age who were diagnosed with Acute Myeloid Leukemia (AML).
In one embodiment, the method of data acquisition was performed as follows: on day 1 bone marrow (BM) or peripheral blood (PB) patient sample was received. A small part was separated from the rest of the sample for validation, while the majority of the sample was diluted with culture media and plated into 96-well plates previously prepared with the desired compounds and compound combinations, e.g., a compound or compound combination described herein. The number of live leukemic cells seeded in each well was fixed between 8000 and 32000, depending on the percentage of leukemic cells for each sample. […] Antibodies were added to identify leukemic cells using a gating strategy based on FSC/SSC and expression or lack of expression of different surface markers. The monoclonal antibodies selection was performed to optimize the identification of leukemic cell in each sample.
In one embodiment, non-limiting examples of biomarkers such as the biomarkers CD34, CD45, CD117, and HLADR known as “backbone markers” for AML (van Dongen, J. J. and A. Orfao, EuroFlow: Resetting leukemia and lymphoma immunophenotyping. Basis for companion diagnostics and personalized medicine, Leukemia, 2012, 26, 1899-907) were included in the combination.
In one embodiment, antibody combinations such as CD117/CD45, CD34/CD45, and HLADR/CD45 were used. Live leukemic cells were identified by their light scatter properties (FSC^int/hi/SSC^int) in the absence of Annexin-V-FITC staining. FSC/SSC selection was performed to exclude debris. The average percentage of cell viability upon receipt of the sample was 80% and samples were only processed if the viability was greater than 50%.
In one embodiment, sample validation was performed as follows: BM and PB samples were extracted under sterile conditions and received in the laboratory within 24 hours of extraction. Initial analysis evaluated the number of pathological cells and their viability. Different volumes of sample (1 μL, 3 μL, 5 μL and 7 μL) were aliquoted in duplicate into a 96-well plate. To lyse red blood cells, 180 μL of ammonium chloride lysis solution was added to each well (2 g KHCO3, 16.58 g NH4Cl, 0.074 g Na2EDTA.2H2O, H2O to 1 L). Following a 10 min incubation period at 4° C., plate was centrifuged for 5 min at 1200 rpm and the supernatant removed. The lysis step was performed twice. To analyze, 20 μL of a combination of Annexin V-FITC (Immunostep, Salamanca, Spain), binding buffer (BB, 2.4 g HEPES, 8.19 g NaCl, 0.37 g Cl2Ca, H2O to 1 L), and the following monoclonal antibodies (mAb) were added to each well: CD117 (clone 104D2)-PE (Becton Dickinson, San Jose, Calif., US), CD34 (clone 581)-PerCP (BioLegend, San Diego, Calif., US), HLADR (clone L243)-PB (BioLegend) and CD45 (HI30)-PO (Life Technologies, Carlsbad, Calif., US) (van Dongen, J. J., et al., EuroFlow antibody panels for standardized n-dimensional flow cytometric immunophenotyping of normal, reactive and malignant leukocytes, Leukemia, 2012, 26, 1908-75). After 15 min of incubation at room temperature in the dark, a wash step was performed using binding buffer solution. The pellet was resuspended in 30 μL BB for analysis in Vivia's ExviTech© platform. Cell count and viability upon arrival were computed and the optimal volume of sample to use per well was determined.
In one embodiment, the assay was performed according to following method: the whole sample was diluted with RPMI 1640, supplemented with 20% (v/v) FBS (Thermo Scientific, Waltham, Mass., US), 2% HEPES, 1% antibiotic (Zell Shield, Labclinics, Barcelona, Spain) and 1% L-glutamine 200 mM (Lonza, Hopkinton, Mass., US) to a final volume of 60 μL per well. […]

In the next assay the test system is K562. The experiment in a line: In vitro inhibition, CellTiter-Glo (CTG) assay, 72 hr exposure. It counts as cell-based. The following applies: K562, 72 hr. On the procedure: (§1) Cells were grown in RPMI-1640 supplemented with L-Glutamine and 10% FBS of the following cell lines:
(§2) CCRF-CEM; CCRF-CEM-cytarabine resistant; HL-60; K562; CFPAC-1; MiaPACA-2; BxPC-3; PANC-1; HepG2; MDA-MB-231; HCT-116; A498; and NCI-H69
(§3) 18, 96 well plates of each cell line were seeded with the optimized number of cells per well in a total volume of 50 μL per well. The plates were left overnight. Plate wells were seeded with 100 μL media for media control. The following day, cells were exposed to test compounds as described below. At the same time as drug exposure, a CTG assay was conducted on the 18th plate for the 0 hr count.
(§4) The compounds were added to cells and medium already on the plate to give desired final concentrations. 50 μL media were added to cell control wells, and 50 μL of mix added to vehicle control wells. 10 μM Doxorubicin was added to appropriate wells. Cells exposed to test compound were incubated at 37° C. for 72 hr followed by a CTG assay.
(§5) At the end of the 72 hr exposure period, plates were removed for a CellTiter-Glo (CTG) assay from a 37° C., 5% CO2 incubator and placed on the bench at room temperature for 30 mins. 100 μL of CellTiter-Glo reagent was added and mixed for 2 mins, followed by a further 10 min incubation at room temperature. Luminescence was recorded using Synergy 4.0.

The test system of another assay is BxPC-3. The assay is described as above. The settings on record: BxPC-3, 72 hr. It counts as cell-based. On the procedure: as §1, §2, §3, §4, §5
The subject of assay [2] is CCRF-CEM-cytarabine resistant. The description is as above. It counts as cell-based. The procedure:
as §1, §2, §3, §4, §5

A further assay relates to MDA-MB-231. Described as above. It counts as cell-based. The following applies: MDA-MB-231, 72 hr. On the procedure: as §1, §2, §3, §4, §5
The test system of a further assay is MiaPACA-2. The description is as above. It is filed as cell-based. The settings on record: MiaPACA-2, 72 hr. The procedure: as §1, §2, §3, §4, §5
A further assay concerns NCI-H69. The assay is described as above. It counts as cell-based. The settings on record: NCI-H69, 72 hr. On the procedure: as §1, §2, §3, §4, §5
The next assay relates to HL-60. Described as above. It counts as cell-based. The following applies: HL-60, 72 hr. The procedure:
as §1, §2, §3, §4, §5

Another assay deals with HepG2. Described as above. It counts as cell-based. The following applies: HepG2, 72 hr. The procedure:
as §1, §2, §3, §4, §5

A further assay relates to CFPAC-1. The description is as above. It counts as cell-based. The following applies: CFPAC-1, 72 hr. The procedure: as §1, §2, §3, §4, §5
The next assay relates to PANC-1. The description is as above. It is filed as cell-based. The settings on record: PANC-1, 72 hr. The procedure: as §1, §2, §3, §4, §5
The subject of a further assay is CCRF-CEM. The description is as above. It counts as cell-based. The procedure: as §1, §2, §3, §4, §5
The next assay concerns HCT-116. The assay is described as above. It is filed as cell-based. The following applies: HCT-116, 72 hr. The procedure:
as §1, §2, §3, §4, §5

For the next assay, the system named is A498. The description is as above. The following applies: A498, 72 hr. It counts as cell-based. On the procedure: as §1, §2, §3, §4, §5

In the case of `CC(C)OC(=O)[C@H](C)NP(=O)(OC[C@H]1S[C@@H](n2ccc(N)nc2=O)[C@@H](O)[C@@H]1O)Oc1ccccc1` (single isomer, unassigned) [drawing 47], the pEC50 in assay [1] (Homo sapiens, 48 h) was at most 4.70. In [1] (Homo sapiens), the Emax was 0 to 10%.
Turning to `Nc1ccn([C@@H]2S[C@H](COP(=O)(NCc3ccccc3)OCc3ccc([N+](=O)[O-])o3)[C@@H](O)[C@@H]2O)c(=O)n1` (single isomer, unassigned) [Compound 103 (diastereoisomer 2)], the pIC50 in the assay on K562 was 5.00 to 6.00; with BxPC-3, 5.00 to 6.00; in [2], 5.00 to 6.00; in the assay with MDA-MB-231, 4.00 to 5.00; with MiaPACA-2, 5.00 to 6.00; in the assay with NCI-H69, 5.00 to 6.00. Besides, the negative logarithm of the IC50 (pIC50) in the assay on HL-60 is above 6.00; in the assay on HepG2, 5.00 to 6.00; with CFPAC-1, 5.00 to 6.00; in the assay with PANC-1 it was 4.00 to 5.00; in the assay with CCRF-CEM, above 6.00; in the assay with HCT-116, 5.00 to 6.00. Also, the pIC50 with A498 was 5.00 to 6.00.
As to `CC(C)OC(=O)[C@H](C)NP(=O)(OC[C@H]1S[C@@H](n2ccc(N)nc2=O)[C@@H](O)[C@@H]1O)Oc1ccccc1` (single isomer, unassigned) [Compound 101b (diastereoisomer 2)], the pIC50 with K562 (Homo sapiens) was 4.00 to 5.00; with BxPC-3 (Homo sapiens), 4.00 to 5.00; in assay [2] it was 5.00 to 6.00; with MDA-MB-231, 4.00 to 5.00; with MiaPACA-2, 5.00 to 6.00; with NCI-H69, 4.00 to 5.00. The pIC50 is 5.00 to 6.00 with HL-60 (Homo sapiens); 5.00 to 6.00 in the assay on HepG2; 4.00 to 5.00 in the assay with CFPAC-1 (Homo sapiens); 4.00 to 5.00 with PANC-1; above 6.00 in the assay with CCRF-CEM (Homo sapiens); 5.00 to 6.00 with HCT-116. Also, the negative logarithm of the IC50 (pIC50) with A498 is 4.00 to 5.00.
On to `CCOC(=O)COP(=O)(N[C@@H](CC(C)C)C(=O)OCC)OC[C@H]1S[C@@H](n2ccc(N)nc2=O)[C@@H](O)[C@@H]1O` (single isomer, unassigned) [drawing 50], for which the pEC50 in assay [1] is 4.70 to 5.00.
For `COC(=O)COP(=O)(N[C@@H](CC(C)C)C(=O)OC)OC[C@H]1S[C@@H](n2ccc(N)nc2=O)[C@@H](O)[C@@H]1O` (single isomer, unassigned) [drawing 54], in assay [1] (Homo sapiens, 48 h), the negative-log EC50 (pEC50) was 5.00 to 6.00 and the Emax is 0 to 10%.
On the same counts, the results for `Nc1ccn([C@@H]2S[C@H](COP(=O)(O)NCc3ccccc3)[C@@H](O)[C@@H]2O)c(=O)n1` [drawing 49] are 5.00 to 6.00 and 10 to 20%.
On the same counts, the results for `CCOC(=O)COP(=O)(N[C@@H](CC(C)C)C(=O)OCC)OC[C@H]1S[C@@H](n2ccc(N)nc2=O)[C@@H](O)[C@@H]1O` (single isomer, unassigned) [drawing 51] are 4.70 to 5.00 and 0 to 10%.
For `CC(C)(C)SSCCOP(=O)(NCc1ccccc1)OC[C@H]1S[C@@H](n2ccc(N)nc2=O)[C@@H](O)[C@@H]1O` (single isomer, unassigned) [drawing 58], in assay [1], the pEC50 is at most 4.70 and the “Emax (%)” value is given as “C (C>20%)”.
Regarding `CC(=O)OC[C@H](C)NP1(=O)OC[C@H]2S[C@@H](n3ccc(N)nc3=O)[C@@H](O)C2O1` (stereo partly drawn), in assay [1] (Homo sapiens, 48 h), the negative-log EC50 (pEC50) was at most 4.70 and the maximum response (Emax) is above 20%.
On the same counts, the results for `CC(C)(C)SSCCOP(=O)(NCc1ccccc1)OC[C@H]1S[C@@H](n2ccc(N)nc2=O)[C@@H](O)[C@@H]1O` (single isomer, unassigned) [drawing 57] are at most 4.70 and 10 to 20%.
As for `Nc1ccn([C@@H]2S[C@H](COP(=O)(NCc3ccccc3)OCc3ccc([N+](=O)[O-])o3)[C@@H](O)[C@@H]2O)c(=O)n1` (single isomer, unassigned) [drawing 52], in assay [1] (Homo sapiens, 48 h), the maximal response (Emax) lay in the range of 0 to 10%. The negative logarithm of the EC50 (pEC50) in assay [1] was 4.70 to 5.00.
Turning to `Nc1ccn([C@@H]2S[C@H](COP(=O)(NCc3ccccc3)OCc3ccc([N+](=O)[O-])o3)[C@@H](O)[C@@H]2O)c(=O)n1` (single isomer, unassigned) [drawing 53], in assay [1], the pEC50 was 5.00 to 6.00 and the “Emax (%)” value is “A (A=0-10%)”.
For the molecule `COC(=O)COP(=O)(N[C@@H](CC(C)C)C(=O)OC)OC[C@H]1S[C@@H](n2ccc(N)nc2=O)[C@@H](O)[C@@H]1O` (single isomer, unassigned) [drawing 55], the pEC50 in assay [1] is 5.00 to 6.00.
For the molecule `CC(C)OC(=O)[C@H](C)NP(=O)(OC[C@H]1S[C@@H](n2ccc(N)nc2=O)[C@@H](O)[C@@H]1O)Oc1ccccc1` (single isomer, unassigned) [drawing 48], in assay [1], the pEC50 was 4.70 to 5.00 and the “Emax (%)” value is “A (A=0-10%)”.

The values are drawn from US10815264B2, “Nucleotides for the treatment of cancer” (IDENIX PHARMACEUTICALS LLC, priority 2015, dated 2020).
